Several values for one entry are separate records, joined by “and”; a condition that tells them apart may be missing. Equal values may be shown once. Entries after “also recorded” stand apart in the source; their conditions may differ.
Assays:
E. coli PNP [1] = target: T1, E. coli PNP (Escherichia coli, UniProt P0ABP8); format: biochemical
human PNP = target: T2, human PNP (Homo sapiens, UniProt P00491); assay: Cleavage of purine analog nucleosides by human PNP (HPLC); format: biochemical
T2 sequence (P00491 1-289): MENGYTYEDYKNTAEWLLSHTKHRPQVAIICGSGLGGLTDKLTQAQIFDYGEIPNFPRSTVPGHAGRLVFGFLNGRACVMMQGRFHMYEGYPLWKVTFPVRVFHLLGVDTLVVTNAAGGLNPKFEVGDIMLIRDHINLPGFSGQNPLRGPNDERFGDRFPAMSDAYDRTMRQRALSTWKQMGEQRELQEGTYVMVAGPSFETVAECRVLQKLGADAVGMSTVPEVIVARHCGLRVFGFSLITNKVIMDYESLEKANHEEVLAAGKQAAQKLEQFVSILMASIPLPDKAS

[2] = test system: tumor cells transduced with the E. coli PNP; assay: Killing of PNP-transduced tumor cells in vitro by other prodrugs; format: cell-based
Text: In addition to MeP-dR, two other prodrugs suitable for E. coli PNP activation in tumor cells can be applied to the methodology of the present invention. These prodrugs are F-araA and 2-F-2′deoxyadenosine. […] As desired, this dose had no effect on control untransduced, tumor cells.

E. coli PNP [3] = target: T1, E. coli PNP
[4] = test system: T-84 colon carcinoma cells; assay: Toxicity of MeP and MeP-dR in untransfected T-84 cells; format: cell-based, human
Experimental: T-84 colon carcinoma cells were grown in Dulbecco's modified Eagle medium containing F12 nutrient medium (DMEM/F12) (GIBCO/BRL, Gaithersburg, Md.) in 6 well trays to a density of approximately […] (−20% confluency).
Untransfected T-84 colon carcinoma cells were treated with increasing concentrations of either MeP-dR or MeP. After 5 days the cells were removed from each well and the number of dye excluding cells were determined with the aid of a hemacytometer. Cells were studied both at passage 48 (p. 48) and passage 61 (p. 61). MeP was obtained from Sigma Chemical Company (St. Louis, Mo.). MeP-dR was synthesized by standard methods as described (J. A. Montgomery and K. Howson, J. Med. Chem., 11:48-52 (1968)). The nucleoside and base were dissolved in serum free DMEM/F12 at a concentration of 1 mg/ml and added directly to 1 ml DMEM/F12 with 10% fetal bovine serum at the concentrations described below in order to cover 1-2×10^5 cells/well.
Initial cytopathic effects due to MeP were observed within 24 hours (for example, rounding of cells, with some cells detaching from plate). Viable cells were counted 5 days following addition of drug. […] Trypan blue exclusion was used to confirm viability in cells retaining recognizable structure at all concentrations studied. […] If the toxicity of MeP-dR is due to very low levels of liberation of MeP by human PNP, then combination with selective inhibitors of human PNP could prevent this toxicity.

Mel-1 cells = assay: Wild type melanoma cell viability; format: cell-based, human; details: concentrations as low as 0.5 μg/ml, five days
CEM cells = assay: Toxicity to nondividing CEM cells (1% serum); format: cell-based; details: 10 μg/ml, non-proliferating cells in 1% serum
Experimental: Results from experiments indicate that MeP is able to kill non-proliferating cells. This distinguishes MeP from most other antitumor agents. In the first experiment, CEM cells were cultured in 1% serum instead of the normal 10% serum for 48 hours. Under these conditions, the cells stop growing and the cell numbers stabilize at 1.5 to 2 times the original cell numbers. Cell growth continues when cells are returned to culture medium containing 10% serum.

[5] = test system: CF PAC (human pancreatic adenocarcinoma) cells; assay: Intratumoral MeP in established human pancreatic tumors in SCID mice; format: in vivo; details: once a day for three days
Experimental: CF PAC (human pancreatic adenocarcinoma) cells were grown in T75 flasks, trypsinized, washed with PBS and then inoculated subcutaneously into female SCID mice at approximately 2×10^7 cells per animal. The tumors were allowed to grow for several days until they reached the size of approximately […]. At this point, groups of five animals were treated either with vehicle (PBS), PBS containing methyl purine (1.67 mg/kg) or PBS with a higher dose of methyl purine (5.0 mg/kg). Drug or vehicle was injected intratumorally with 3-4 needle passes. Animals were treated with either vehicle or drug one time each day for three days. The growth of the tumors was followed. Measurements in two dimension were used to approximate the overall tumor size. […] For example, purine analogs which are known to have strong cytotoxic activity such as 2-fluoroadenine, 2-fluoroadenosine, 9-[ribosyl]-6-methylpurine, 2-amino-6-chloro-1-deazapurine, 3-deazaguanine, 6-thioguanine, and 6-mercaptopurine can be directly administered to a tumor to cause regression and/or inhibit tumor growth.

[6] = Stability under tissue culture conditions (HPLC of supernatants); details: HPLC analysis of supernatants
[7] = test system: Nc1nc(F)nc2c1ncn2[C@H]1C[C@H](O)[C@@H](CO)O1; assay: purified protein, by the assay type
[8] = test system: OC[C@H]1O[C@@H](n2cnc3c(O)ncnc32)[C@H](O)[C@@H]1O; assay: purified protein, by the assay type; details: other: enzyme source: Bacteria

T1 sequence (P0ABP8 2-239): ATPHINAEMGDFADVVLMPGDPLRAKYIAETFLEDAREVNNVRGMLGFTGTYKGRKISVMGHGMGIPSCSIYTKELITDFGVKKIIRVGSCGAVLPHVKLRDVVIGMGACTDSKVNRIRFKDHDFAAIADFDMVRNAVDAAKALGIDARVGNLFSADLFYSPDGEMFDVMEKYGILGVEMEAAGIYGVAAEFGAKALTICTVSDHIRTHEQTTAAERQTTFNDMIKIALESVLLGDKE

Compound: Nc1nc(F)nc2c1ncn2[C@@H]1O[C@H](CO)[C@@H](O)[C@@H]1O [F-araA, 2-F-arabinofuranosyl-adenine]
- Percent of substrate cleaved by E. coli PNP, 100 μM (E. coli PNP [1]): 3(86) Percent and 5(86) Percent
- Substrate quality for bacterial (E. coli) PNP (E. coli PNP [1]): moderate substrates; also recorded: poorly cleaved
- Percent of substrate cleaved by Human PNP, 100 μM (human PNP): 0(88) Percent and 0(86) Percent
- Percent of substrate cleaved by Human PNP, 1 mM (human PNP): 0(50) Percent and 0(47) Percent
- Substrate quality for mammalian (human) PNP (human PNP): poor substrates; also recorded: not cleaved
- Killing of PNP-transduced tumor cells in vitro [2]: high level killing
- Killing of transduced versus untransduced tumor cells ([2]; 500 ng/ml): specifically killed transduced, but not untransduced, tumor cells
- Km (E. coli PNP [3]): 510 µM

Compound: Cc1ncnc2nc[nH]c12 [MeP, 6-methylpurine, reference compound]
- Time to initial cytopathic effects [4]: ≤ 24 h
- Effect on cells ([4]; MeP 3.75 μM-75 μM, by day 2): cell lysis and complete loss of cellular architecture
- Lethality to Mel-1 cells (Mel-1 cells): ~100%
- Cell numbers relative to original number (CEM cells): approximately 25%
- Tumor growth ([5]; 1.67 mg/kg intratumorally): intermediate effect upon tumor growth
- Tumor growth ([5]; 5.0 mg/kg intratumorally): completely arrested in terms of their growth
- Stability under tissue culture conditions [6]: stable

Compound: E. coli PNP (Escherichia coli K-12)
- Km ([7]; other: enzyme source: Bacteria): 44 µM
- Km ([7]; other: enzyme source: D54 cells (transduced)): 38 µM
- Km [8]: 46 µM

Reference: US6958318B2, “Recombinant bacterial cells for delivery of PNP to tumor cells” (The UAB Research Foundation, priority 1993, dated 2005)
